{
  "source": "patent US20240327471A1",
  "about": "“IL-10 INDUCING POLYPEPTIDES AND USES THEREOF” (ENTEROME S.A., priority 2021, published 2024)",
  "key": {"human ileal explants": {"tested_on": "human ileal explants", "assay": "Ex vivo human ileal explants in Ussing chambers inflamed with E. coli LF82 (TER, histology, IL-8 ELISA)", "type": "cell-based", "experimental": "Next, the role of NAT_29 was evaluated in the context of inflammatory diseases using ex vivo experiments performed on human ileal resections. To this end, explants were mounted on Ussing Chambers in order to separate the apical side from the basolateral side as naturally occurs in the gut. Tissues were pre-incubated 1 h with NAT_29 (SEQ ID NO: 1) before inflammation was triggered with live Escherichia coli LF82 during 4 hours.\nPreparation of Bacteria: The day before the assay, LB broth (Sigma Aldrich, L3522) was inoculated, using sterile loops, with bacteria from a glycerol stock (E. coli LF82-gfp) maintained at −80° C. Tubes were incubated overnight at 37° C. without shaking. The next day, optical density of the bacterial suspensions was read at 600 nm using a spectrophotometer (Amersham Ultrospec 10) allowing estimation of the bacterial cell density and bacteria were added to human explants as explained below.\nHuman tissue samples were obtained from patients undergoing surgery with the patients' agreement. Samples were taken from macroscopically unaffected area as identified by the surgeon. […]\nThree parameters were assessed to evaluate the anti-inflammatory potential of NAT_29 in the ex vivo model: • 1) Transepithelial Electrical Resistance (TER) which is a measure of integrity/tightness of the human explants; • 2) histology; • 3) IL-8 secretion (quantified by Elisa).\nTER assays are well-known methods for measuring effects on the structural and functional integrity of an epithelial cell layer, which are described, for example, in: Srinivasan et al., 2015, J Lab Autom, 20:107-126. Accordingly, the integrity/tightness of the human explants during the incubation was evaluated through Transepithelial Electrical Resistance (TER) measurement using Millicell-ERS (Electrical Resistance System) Voltohmmeter (Millipore, MERS00002). […]\nIL-8 levels were measured by ELISA (BD Biosciences, 555244). […] Absorbances were measured using a microplate reader (BioTek, Synergy MX, model SMATLD) at 490 nm. […]"}, "human CD14+ monocytes": {"tested_on": "human CD14+ monocytes", "assay": "NAT_29 dose response, IL-10 secretion from monocytes co-stimulated with LPS (AlphaLISA)", "type": "cell-based", "conditions": "LPS 100 ng/ml, 24 hours", "experimental": "To investigate the IL-10 inducing/enhancing capacity of NAT_29, in vitro IL-10 secretion of human immune cells in the presence of different doses of NAT_29 was tested. Briefly, human CD14+ monocytes were isolated from peripheral blood mononuclear cells (PBMCs) from healthy human volunteers by density gradient centrifugation using SepMate™-50 IVD tubes (Stemcell, Ref. 85460). The obtained PBMCs were washed thrice with Dulbeccos's phosphate buffered saline (PBS, Sigma, D88537) and lysed 10 min at room temperature in Red blood Lysis buffer 1X (Miltenyi Biotec, 130-094-183). Cells were washed with MACS buffer (Miltenyi Biotec, 130-091-221) and counted using the trypan blue dye exclusion method. CD14+monocytes were sorted using anti-human CD14 Microbeads (Miltenyi Biotec, 130-050-201) as per manufacturer's protocol. Positive CD14+ fractions were collected and seeded at 2×10^4 cells per well in 384 well plates in IMDM medium (Gibco, 12440-046) supplemented with 10% FBS and 1X antibiotic solution.\n[…] IL-10 secretion were measured at 24 hours by AlphaLISA® on cell supernatants according to the supplier's protocol and read on an Envision plate reader (Perkin Elmer)."}},
  "data": [
    {"sequence": "KKGSRSCFFIYLDRGTKKGSRSCFFYLP (NAT_29) [28-amino-acid fragment of microbiota protein ID3166]", "values": [
      {"measurement": "IL-8 secretion (ELISA, basolateral side)", "setting": "human ileal explants; 1000 or 10 nM, LF82 4 h (LF82 alone 4-fold increase)", "result": "completely abolished IL-8 secretion"},
      {"measurement": "TER reduction", "setting": "human ileal explants; pre-incubation 1 h at 1000 nM or 10 nM, then E. coli LF82 4 hours, LF82 alone 52%, control without LF82 24%", "result": 32, "unit": "%"},
      {"measurement": "histology (H&E staining) of explants", "setting": "human ileal explants; pre-incubation with 1000 nM, LF82 4 h", "result": "protective effect against LF82-induced degradation"},
      {"measurement": "IL-10 secretion from monocytes", "setting": "human CD14+ monocytes; 0.1 to 1000 nM", "result": "highest IL-10 levels were measured in both cell types at the highest concentration of NAT_29 tested"},
      {"measurement": "sensitivity of monocytes versus MoDCs to the action of NAT_29", "setting": "human CD14+ monocytes; IL-10 secretion", "result": "monocytes appeared to be more sensitive than MoDCs"}
    ]}
  ]
}
